Earlier results on 2 compounds are cited in US20120040927A1, “MEDICINAL ANTIFUNGAL AND STEROID CREAM INCORPORATING A BIOPOLYMER AND A PROCESS TO MAKE IT” (APEX LABORATORIES PRIVATE LIMITED, priority 2009, published 2012).

The test system of data set [1] is Trichophyton rubrum, Trichophyton mentagrophytes, Epidermophyton floccosum, Microsporum canis and Candida species including Candida albicans.
Assay in data set [2]: not given
This is another data set of the same source.

Assay in data set [3]: not given
The source holds these as a separate data set.

SMILES strings stand for the structures. Read-outs that look alike come from different tables or passages of the source.

For the compound `Clc1ccccc1C(c1ccccc1)(c1ccccc1)n1ccnc1` [Clotrimazole, 1-(o-Chloro-α, α-diphenylbenzyl)imidazole], the Absorption entry (humans, oral administration) is given as “well absorbed”; the Absorption result (topical and vaginal administration) is reported as “minimally absorbed”. Further, the “In vitro antifungal activity against isolates” value in data set [1] is “fungistatic and fungicidal activity”. Further, the Protein binding entry in data set [2] is given as “about 90%”. Besides, in data set [3] (ether), the Solubility in ether entry was “sparingly soluble”. The “Solubility in polyethylene glycol 400, ethanol and chloroform” value in data set [3] (polyethylene glycol 400, ethanol, chloroform) is recorded as “very soluble”. For the same compound, the Solubility in water result in data set [3] is recorded as “practically insoluble”.
Take `CC(=O)OCC(=O)[C@@]1(O)CC[C@H]2[C@@H]3CCC4=CC(=O)CC[C@]4(C)[C@H]3[C@@H](O)C[C@@]21C` [Hydrocortisone Acetate]: the “Solubility in alcohol and in chloroform” value in data set [3] (alcohol, chloroform) is on record as “slightly soluble”. Further, the Solubility in water result in data set [3] is “insoluble”.
